Assay results from PubChem BioAssay AID1549 (Sanford-Burnham Center for Chemical Genomics, 2009).
Calls of active or inactive are those of the source. How the calls were made is not given here.

Target: Influenza A virus M2 proton channel (A/TW/4845/1999 H1N1)
Experiment: M2 proton channel binding, NMR based, influenza A virus H1N1 strain (AID 1549)
Conditions: NMR binding screen, M2 protein

CC(=O)Nc1nc(-c2cccs2)cs1
Kd: > 4 mM (inactive)

O=C(Nc1ccccc1C(F)(F)F)c1cnccn1
Kd: > 4 mM (inactive)

O=C1CCC(=O)N1c1ccc(O)cc1
Kd: > 4 mM (inactive)

CCCCn1c(=O)cc(O)c2ccccc21
Kd: > 4 mM (inactive)

O=S(=O)(N1CCCCC1)n1nnc2ccccc21
Kd: > 4 mM (inactive)

CC(C)/C(O)=C1/C(=O)O[C@@H](c2ccoc2)[C@]2(C)C(O)[C@@H](O)[C@@]34OC5(C)OC67CC(C)(C(O)[C@]6(O)[C@@H](O)[C@]3(O5)C12)[C@H](CC(=O)O)[C@]74C (stereo not given in full)
Kd: > 4 mM (inactive)

COc1c(C(=O)N2CCCC2)ccc2ccccc12
Kd: > 4 mM (inactive)

O=S1(=O)CCC(NC(=S)Nc2ccc(O)cc2)C1 (stereo not given)
Kd: > 4 mM (inactive)

Cc1cc2nc3c(=O)[nH]c(=O)nc-3n(CC(O)C(O)C(O)CO)c2cc1C (stereo not given)
Kd: > 4 mM (inactive)

c1cncc(-c2nnc(-c3cccnc3)nn2)c1
Kd: > 4 mM (inactive)

COC(=O)c1c(OC)cc2c(c1C)Oc1c(Cl)c(OC(C)=O)c(Cl)c(C)c1C(=O)O2
Kd: > 4 mM (inactive)

O=C1CSC(=O)N1c1cccc(O)c1
Kd: > 4 mM (inactive)

CS(=O)(=O)c1ccc(N)cc1
Kd: > 4 mM (inactive)

CC(=O)c1cc(C(N)=O)c(=S)[nH]c1C
Kd: > 4 mM (inactive)

Cc1nnc(Nc2ccc(S(N)(=O)=O)cc2)[nH]c1=O
Kd: > 4 mM (inactive)

Cc1c(C(=O)Nc2ccccc2)sc(N)c1C(N)=O
Kd: > 4 mM (inactive)

CSc1nc2cc(F)c(F)cc2n1C
Kd: > 4 mM (inactive)

NC(=O)C1CCN(S(=O)(=O)c2ccccc2)CC1
Kd: > 4 mM (inactive)

NC(=S)N1CCC(c2ccccc2)=N1
Kd: > 4 mM (inactive)

O=c1ccc2ccccc2o1
Kd: > 4 mM (inactive)

Cc1nnc(N2CCc3ccccc3C2)[nH]c1=O
Kd: > 4 mM (inactive)

COc1cc(/C=C/C(=O)O)cc(OC)c1OC
Kd: > 4 mM (inactive)

NC(CSCSCC(N)C(=O)O)C(=O)O (stereo not given)
Kd: > 4 mM (inactive)

Cc1nc2sc3c(c2c(=N)n1N)CC(C)(C)OC3
Kd: > 4 mM (inactive)

CC(C)Oc1ccc(C2CC(=O)NNC2=O)cc1 (stereo not given)
Kd: > 4 mM (inactive)

CCOC(=O)c1sc(SC)c2c1CCCC2O (stereo not given)
Kd: > 4 mM (inactive)

CC(=O)N1CCN(S(=O)(=O)c2ccccc2)CC1
Kd: > 4 mM (inactive)

CC(=O)Nc1sccc1C(=O)NC(N)=O
Kd: > 4 mM (inactive)

COc1c(OC)c2occc2c2oc(=O)ccc12
Kd: > 4 mM (inactive)

C=C1C2=CC(=O)O[C@@H](c3ccoc3)[C@]2(C)CCC1[C@@]1(C)C=CC(=O)C(C)(C)[C@@H]1CC(=O)OC (stereo not given in full)
Kd: > 4 mM (inactive)

O=C(/C(=N\O)n1cncn1)c1ccccc1Cl
Kd: > 4 mM (inactive)

COc1cc(-c2csc(C)n2)ccc1O
Kd: > 4 mM (inactive)

NC(=O)Cn1nc(-c2ccco2)ccc1=O
Kd: > 4 mM (inactive)

COc1cc2c(cc1OC)C1Cc3ccc(OC)c(OC)c3CN1CC2 (stereo not given)
Kd: > 4 mM (inactive)

OCc1ccc(-c2ccccn2)s1
Kd: > 4 mM (inactive)

O=C(CC1SC(=O)NC1=O)Nc1ccccc1 (stereo not given)
Kd: > 4 mM (inactive)

CNC(=S)Nc1ccc(C(=O)O)cc1
Kd: > 4 mM (inactive)

c1ccc(-c2nsc(N3CCCNCC3)n2)cc1
Kd: > 4 mM (inactive)

Nc1cc(=O)[nH]c(SCC(=O)Nc2nccs2)n1
Kd: > 4 mM (inactive)

COc1cc(OC)c(-c2nc3cnccc3n2C)cc1OC
Kd: > 4 mM (inactive)

COc1cc2c(cc1O)CCNC2C (stereo not given)
Kd: > 4 mM (inactive)

O=C(Nc1nnc(C(F)(F)F)s1)c1cccnc1
Kd: > 4 mM (inactive)

CC(C)=NNC(=O)c1ccccc1
Kd: > 4 mM (inactive)

COc1ccc2c(c1)OCC(Cc1ccc(OC)c(O)c1)C2=O (stereo not given)
Kd: > 4 mM (inactive)

CSc1nc2[nH]ncc2c(=O)[nH]1
Kd: > 4 mM (inactive)

Cc1cc(NC(=O)c2cccc(N3C(=O)CCC3=O)c2)no1
Kd: > 4 mM (inactive)

O=C(Cc1cccs1)Nc1nncs1
Kd: > 4 mM (inactive)

NCc1ccc(-c2csnn2)cc1
Kd: > 4 mM (inactive)

O=C(O)CN1CCNCC1
Kd: > 4 mM (inactive)

Cc1cccc(C)c1N1C(=O)CCC1=O
Kd: > 4 mM (inactive)

COc1ccc(C2(CN)CCOCC2)cc1OC
Kd: > 4 mM (inactive)

NC1CN2CCC1CC2 (stereo not given)
Kd: > 4 mM (inactive)

Cn1c2c(c(=O)n(C)c1=O)CN(Cc1ccco1)CN2
Kd: > 4 mM (inactive)

CCn1c2ccccc2c2nn(C)c(=N)nc21
Kd: > 4 mM (inactive)

Cc1ccc(-n2[nH]c(C)cc2=O)cc1
Kd: > 4 mM (inactive)

O=C(Nc1cccc(Cl)c1)c1cnn2cccnc12
Kd: > 4 mM (inactive)

Nc1ncccc1OCc1ccccc1
Kd: > 4 mM (inactive)

CC(C)=CCOc1c2occc2cc2ccc(=O)oc12
Kd: > 4 mM (inactive)

NCCCCN
Kd: > 4 mM (inactive)

CC(C)NC(=O)c1nc2ccccc2s1
Kd: > 4 mM (inactive)

Cc1nc(N)sc1C(=O)N/N=C/c1ccncc1
Kd: > 4 mM (inactive)

Cc1cc(=O)n2[nH]c(C)cc2n1
Kd: > 4 mM (inactive)

Cn1nnc2c(N3CCC(C(N)=O)CC3)ncnc21
Kd: > 4 mM (inactive)

Cc1cc(O)c2c(c1O)C(=O)c1c(O)cc(C)c(O)c1C2=O
Kd: > 4 mM (inactive)

CC(C)=CCc1c2c(c3occ(-c4ccc(O)c(O)c4)c(=O)c3c1O)C=CC(C)(C)O2
Kd: > 4 mM (inactive)

O=S(=O)(NCc1ccco1)c1cccc2cccnc12
Kd: > 4 mM (inactive)

O=C(O)CCC1NCC2CC1CN1CCCCC21 (stereo not given)
Kd: > 4 mM (inactive)

O=CN1CCN(C(=O)c2ccccc2Cl)CC1
Kd: > 4 mM (inactive)

CCSc1nc(N)c(NC(=O)c2ccco2)c(=O)[nH]1
Kd: > 4 mM (inactive)

O=C1CSC(=Nc2cccc(C(=O)O)c2)N1
Kd: > 4 mM (inactive)

CC(C)(C)c1cc(N)n[nH]1
Kd: > 4 mM (inactive)

CCn1cnc2cc(NCc3ccncc3)ccc21
Kd: > 4 mM (inactive)

CCC1(CC)C(=O)N=C(N)NC1=O
Kd: > 4 mM (inactive)

CCOC(=O)c1c(-c2ccncc2)csc1N
Kd: > 4 mM (inactive)

CC(C)(C)C(=O)N1CCCC1C(=O)O (stereo not given)
Kd: > 4 mM (inactive)

CS(=O)(=O)Nc1ccc(C(=O)N2CCCCC2)cc1
Kd: > 4 mM (inactive)

CC(C)=CCc1c2c(c(O)c3c(=O)c(O)c(-c4ccccc4)oc13)C=CC(C)(C)O2
Kd: > 4 mM (inactive)

COc1ccc(-c2cc(=O)c3cc(OC)ccc3o2)cc1
Kd: > 4 mM (inactive)

CC(=O)c1cccc(NC2=NCC(C)(C)S2)c1
Kd: > 4 mM (inactive)

Cc1cc(=O)oc2c1c(C)nn2CN1CCN(C)CC1
Kd: > 4 mM (inactive)

Cc1ccccc1N1C(=O)CC(=O)NC1=O
Kd: > 4 mM (inactive)

COC(=O)NNc1ncnc(N)c1[N+](=O)[O-]
Kd: > 4 mM (inactive)

Cc1ccccc1NS(=O)(=O)c1ccc(F)cc1
Kd: > 4 mM (inactive)

CC(=O)Nc1cc2c(cc1C(=O)C(C)C)OCCO2
Kd: > 4 mM (inactive)

O=C1CCNc2ccccc2N1
Kd: > 4 mM (inactive)

NC(=O)CCn1c(=O)oc2ccccc21
Kd: > 4 mM (inactive)

CC(C)CCCC(C)C1CCC2C3=CC[C@H]4C[C@@H](O)CC[C@]4(C)C3CC[C@@]21C (stereo not given in full)
Kd: > 4 mM (inactive)

COC(=O)N1CCN(c2ccc(C(C)=O)cc2)CC1
Kd: > 4 mM (inactive)

COc1ccc(-c2coc3c(OC)c(OC)cc(OC)c3c2=O)cc1
Kd: > 4 mM (inactive)

Cc1cc(NC(=O)CSc2ccnc(=O)[nH]2)no1
Kd: > 4 mM (inactive)
